Results as given in article PMC10979003, “Development and crystal structures of a potent second-generation dual degrader of BCL-2 and BCL-xL” (Nature Communications, 2024).
One block for each compound: values may come before it. Residues, ends and D or L forms follow the SMILES beside them. *: point of attachment. Cbz = O=C(OCc1ccccc1)*

How the values were obtained:
[1] = system: BCL-xL/BCL-2; experiment: Blocking of WH244-induced BCL-xL/BCL-2 degradation in Jurkat cells (immunoblot); assay type: cell-based, human; settings: for Effect of proteasome / NEDD8-activating enzyme inhibition on WH244-mediated degradation of BCL-xL and BCL-2: Jurkat cells
Protocol: The data are presented as mean ± s.d. from three replicate cell cultures in a representative experiment for Jurkat cells. h Left, WH244 induces polyubiquitination of WT, K22R BCL-2 and to some extent K17R but not K17/22R BCL-2 in 293T cells. 293T cells were co-transfected as indicated with Flag-BCL−2 WT or mutants and HA-tagged ubiquitin (HA-Ub) plasmids. After 36 h, cells were pretreated with MG132 (10 µM) for 2 h and then treated with or without WH244 (1 μM) for 5 h. The Flag-tagged proteins were immunoprecipitated (IP) and immunoblotted with HA or Flag antibody. Right, The input blot for this assay. Data are a representative of two independent experiments. Source data are provided as Source Data file.
A series of experiments were performed to assess the efficacy of WH244. […] These DC50 values were ~6.2 and 6.8-fold better than of 753b for BCL-xL (DC50 of 3.7 nM) and BCL-2 (DC50 of 50 nM), respectively. Also, WH244-mediated proteolysis of BCL-xL and BCL-2 was time-dependent with BCL-xL degrading faster than BCL-2 (Fig. 3c). […]
Cells were collected, washed once with ice-cold phosphate-buffered saline, pH 7.2 (PBS, cat. no. 20012027; Thermo Fisher Scientific) and lysed in RIPA lysis buffer (Cat. No. BP-115DG, Boston Bio Products, Ashland, MA, USA) supplemented with protease and phosphatase inhibitor cocktails (Cat. No. PPC1010, Sigma-Aldrich, St. Louis, MO, USA) through sonication. […] The protein concentration in the supernatants was determined using the Pierce BCA protein Assay kit (cat. no. 23225, Thermo Fisher Scientific). […] The membranes were blocked with non-fat dry milk (5% wt/vol) in 1×Tris- buffered saline-Tween-20 (TBST) for 1 h at room temperature, and were subsequently probed with primary antibodies at a pre-determined optimal concentration in non-fat dry milk (5% wt/vol in TBST) overnight at 4 °C. […] Following sufficient washing with TBST, the membranes were exposed with ECL Western Blotting Substrate (Bio-Rad), and the signal was detected using the ChemiDoc MP Imaging System (Bio-Rad) and quantified using the ImageJ (v1.53a) software from NIH. […]

[2] = system: BCL-xL and BCL-2; design: method as in Khan S et al. Nat Med, 25: 1938-1947, 2019; settings: ref Khan S et al. Nat Med, 25: 1938-1947, 2019; cited from earlier work
[3] = system: MOLT-4 T-ALL cells; experiment: Potency against MOLT-4 T-ALL cells in vitro; assay type: cell-based; settings: Homo sapiens
[4] = system: RS4 B-ALL cells; experiment: Potency against RS4 B-ALL cells in vitro; assay type: cell-based
[5] = system: human platelets; experiment: Potency against human platelets in vitro; assay type: cell-based; settings: Platelet; human platelets in vitro

Compound: CC(C)C[C@@H](C=O)NC(=O)[C@H](CC(C)C)NC(=O)[C@H](CC(C)C)NC(=O)OCc1ccccc1 [MG132] (Cbz-Leu-Leu-Leu-aldehyde)
Effect of proteasome / NEDD8-activating enzyme inhibition on WH244-mediated degradation of BCL-xL and BCL-2 [1]: abrogated

Compound: Cc1ncsc1-c1ccc([C@H](C)NC(=O)[C@@H]2C[C@@H](O)CN2C(=O)[C@@H](NC(=O)CCCCCC(=O)N2CCN(CC[C@H](CSc3ccccc3)Nc3ccc(S(=O)(=O)NC(=O)c4ccc(N5CCN(CC6=C(c7ccc(Cl)cc7)CCC(C)(C)C6)CC5)cc4)cc3S(=O)(=O)C(F)(F)F)CC2)C(C)(C)C)cc1 [DT2216]
Reduction in binding affinity to BCL-xL and BCL-2 on converting ABT263 into DT2216 [2]: about 8 fold

Compound: NS(=O)(=O)OC[C@@H]1C[C@@H](n2ccc3c(N[C@H]4CCc5ccccc54)ncnc32)C[C@@H]1O [MLN4924]
Effect of proteasome / NEDD8-activating enzyme inhibition on WH244-mediated degradation of BCL-xL and BCL-2 [1]: abrogated

IC50 [3]: 220 nM | IC50 [4]: 38 nM | IC50 [5]: 310 nM
Compound: CC1(C)CCC(c2ccc(Cl)cc2)=C(CN2CCN(c3ccc(C(=O)NS(=O)(=O)c4ccc(N[C@H](CCN5CCOCC5)CSc5ccccc5)c(S(=O)(=O)C(F)(F)F)c4)cc3)CC2)C1 [ABT263, Navitoclax]
Effect of pretreatment on degradation of BCL-xL and BCL-2 with WH244 ([1]; two hours pretreatment, then six-hour WH244, Jurkat cells): completely blocked
